Measured values: patent US20180116988A1, “METHODS OF PREVENTING AND TREATING AUTOIMMUNITY” (THE REGENTS OF THE UNIVERSITY OF COLORADO a body corporate, priority 2015, published 2018)
Where two headings read alike, the source gives them in different places.

What was measured:
DR4 = DR4 T cell response in T1D patients treated with methyldopa; format: in vivo, human; conditions: T1D subjects treated with varying doses of methyldopa
Excerpt: (§1) Human leukocyte antigen (HLA) alleles confer significant genetic risk for type 1 diabetes (T1D) with recent studies implicating DQ8 in its pathogenesis, and DQ8 antigen presentation can be inhibited with methyldopa in animal models. In this pilot study, the inventors evaluated methyldopa treatment in 10 DQ8 positive human subjects with T1D, ages 18-46 years (mean 27) with less than 2 years of diabetes duration (mean 3 months). This was an open label phase 1b dose escalation study.

DQ8 = molecular target: T1, DQ8 (Homo sapiens, UniProt P01909+P01920, A209T/A45G/C70Q/D89A/E183D/E77G/F237L/G63E/H199R/I129T/K197E/L178F/L74F/L98V/N214S/Q57E/Q76R/S185I/S97I/T49S/V73L/Y58L); assay: DQ8-stimulated IL-2 T cell response in T1D patients treated with methyldopa (open label phase 1b dose escalation study); format: in vivo; conditions: for reduction in DQ8-stimulated IL-2 T cell response: DQ8 positive T1D subjects
T1 construct: endogenous in cells; host or cells: blood cells of DQ8-positive human T1D subjects treated with methyldopa
Excerpt: as §1

[1] = parameters: species or system human; conditions: in vivo
Excerpt: as §1

[2] = Glucose control in T1D patients treated with methyldopa over 3 months; format: in vivo, human
Excerpt: as §1

T1 sequence (P01920 33-261 A45G/Y58L/E77G/D89A/H199R/N214S, other chains not shown): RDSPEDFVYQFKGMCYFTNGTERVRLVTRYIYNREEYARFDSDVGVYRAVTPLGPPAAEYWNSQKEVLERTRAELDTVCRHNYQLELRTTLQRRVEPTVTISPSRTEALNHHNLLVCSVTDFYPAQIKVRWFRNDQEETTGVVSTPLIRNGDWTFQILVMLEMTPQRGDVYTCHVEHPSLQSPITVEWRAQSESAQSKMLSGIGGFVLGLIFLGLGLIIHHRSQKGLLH

Structure (SMILES): C[C@](N)(Cc1ccc(O)c(O)c1)C(=O)O [methyldopa, α-Methyl-3,4-dihydroxyphenylalanine]
- DR4 T cell responses (DR4): minimally effected
- DQ8-stimulated IL-2 T cell response after stopping therapy (DQ8; 6 weeks after stopping therapy): returned to normal
- reduction in DQ8-stimulated IL-2 T cell response (DQ8; at 1 week of dose escalation): 32%
- reduction in DQ8-stimulated IL-2 T cell response (DQ8; at 3 weeks of dose escalation): 39%
- subjects tolerating dosage ([1]; human): 9/10
- serious adverse events (hypotension, DKA, or hypoglycemia) [1]: No serious adverse events
- subjects tolerating dosage [1]: All subjects tolerated
- glycemic control [2]: good glycemic control
